Measurements as given in patent US11540516B2, “M-diamide compound and preparation method therefor and use thereof” (priority 2018, dated 2023).
Where two headings read alike, the source gives them in different places.

Experiments:
Format in all cases: in vivo
Mythimna separata = experiment: Indoor bioactivity test against Mythimna separata (leaf dip); settings: foliar, 3rd day after treatment
Source text: The leaf dip method was used to assay the insecticidal activity of compounds to strains of Mythimna sepatata. Cut above ground part of fresh maize seedlings, about 10 cm. Dip the maize seedlings into the solution prepared with compound of this invention for 10 seconds and dry them in a cool environment. Then cut the dry maize seedlings into 3˜5 cm leaf sections and put 3 leaf sections into each petri dish. Put ten of 4th-instar larvae of Mythimna separatas into each dish, which was repeated by 3 times. Then the dishes were placed in an illumination incubator and incubated at 25° C. in the dark. Symptoms were investigated on the 1st, 2nd and 3rd day after treatment, and the mortality was calculated.

[1] = test system: Spodoptera exigua Hiibner; experiment: Indoor bioactivity test against Spodoptera exigua Hiibner (leaf dip); settings: foliar, 3rd day after treatment
Method: (§1) The leaf dip method was used to assay the insecticidal activity of compounds to strains of Spodoptera exigua Hiibner. Dip the leaf disc into the solution prepared with compound of this invention for 10 seconds, and dry them in a cool environment. Then place them in Petri dish with 4 discs per dish. Put the filter paper into the Petri dish to moisturize it. Put 10 of Spodoptera exigua Hiibners into each dish, which was repeated by 3 times. The dishes were placed in an illumination incubator and incubated at 25° C. with 14 hL: 10 hD illumination. The number of Spodoptera exigua Hiibner death was investigated on the 1st, 2nd and 3rd day after treatment, and the mortality was calculated.

Plutella xylostella = experiment: Indoor bioactivity test against Plutella xylostella (leaf dip); settings: foliar; for mortality at 1 ppm / mortality at 0.4 ppm: 3rd day after treatment
Method: as §1, with “Plutella xylostella.” for “Spodoptera exigua Hiibner.”, “Plutella xylostella” for “Spodoptera exigua Hiibners”, “Plutella xylostella” for “Spodoptera exigua Hiibner”
According to the above method, compound 4 and KC1 were selected and parallelly tested against Plutella xylostella to compare their insecticidal activity.

Spodoptera litura = experiment: Indoor bioactivity test against Spodoptera litura (leaf dip); settings: foliar
Method: as §1, with “litura.” for “exigua Hiibner.”, “litura” for “exigua Hiibners”, “litura” for “exigua Hiibner”
According to the above method, compound 4, 23 and KC1 were selected and parallelly tested against Spodoptera litura to compare the insecticidal activity.

Chilo suppressalis = experiment: Indoor bioactivity test against Chilo suppressalis (rice stem dip)
Method: The leaf dip method was used to assay the insecticidal activity of compounds to strains of Chilo suppressalis. The rice was cultivated in a plastic pot with a diameter of 9 cm and a height of 10 cm. When the rice grew about 25 cm, the aerial part of robust and consistent rice seedlings were selectively cut. Their leaves were removed and their stems of about 8 cm were kept for use. Pour the solution prepared with compound of this invention into the Petri dish (about 40 mL) and immerse the rice stems into the solution for 10 seconds. Take rice stems out and dry them in a cool environment. Put a wet cotton ball at the bottom of finger-like glass tube and 5 rice stems in each tube. Put 10 of 3rd-instar larvae of Chilo suppressa into each tube, which was repeated by 3 times. Seal the tubes with black cotton cloth and tighten them with rubber band. The tubes were placed in a illumination incubator at 28° C. and incubated in the dark. The number of alive Chilo suppressalis and the total number were investigated 3 days after treatment. The mortality was calculated.
According to the above method, Compound 23 and KC2 were selected and parallelly tested against Chilo suppressalis.

soybean thrips = experiment: Biological activity on soybean thrips in greenhouse (foliar spray)
Method: Test system: naturally occurring thrips population on soybeans planted in greenhouse. The basic number of active thripses were more than 100 thripses per trifoliate leaf. Under the same conditions, the sensitivity of the thrips population to Spinetoram (dose: 50 mg/L) is 96.55% mortality on the 6th day after treatment.
The size of the plot: 10 m^2, no repetition.
Test formulation: each compound was made into 5% SL (compound 5%+emulsifier 5%+solvent to make up 100%).
(1) Spraying time: both adult and larva thripses were in the active period. The number of spray: 1 time.
(2) Standard for water usage: when dose was in mg/kg, the upper leaves were wet and water began to drop therefrom.
(3) Survey standard: count three single leaves as one leaf. Three leaves were randomly selected and investigated for the number of adult and larva thripses on them.
[…] 2 surveys were conducted.

[2] = dose 50 ppm, 1 d, foliar spray, 5% SL
[3] = dose 50 ppm, 6 d, foliar spray, 5% SL
[4] = 3rd day after treatment, read-out: mortality of Chilo suppressalis
[5] = 24 h, read-out: Mortality (%) 1 d
[6] = 48 h, read-out: Mortality (%) 2 d
[7] = 72 h, read-out: Mortality (%) 3 d

**Q.** Which mortality at 1 ppm (Mythimna separata) does the source give for CC(C1CC1)N(C(=O)c1ccc(Cl)cc1)c1cccc(C(=O)Nc2c(Br)cc(C(F)(C(F)(F)F)C(F)(F)F)cc2C(F)(F)F)c1F (centres unmarked) [Compound 44, N-(2-bromo-4-(perfluoropropan-2-yl)-6-(trifluoromethyl)phenyl)-3-(4-chloro-N-(1-cyclopropylethyl)benzamido)-2-fluorobenzamide] here?
**A.** ≥ 90%

**Q.** For CC(N(C(=O)c1ccc(C#N)cc1)c1cccc(C(=O)Nc2c(Br)cc(C(F)(C(F)(F)F)C(F)(F)F)cc2C(F)(F)F)c1F)C1(Cl)CC1 (centres unmarked) [Compound 75, N-(2-bromo-4-(perfluoropropan-2-yl)-6-(trifluoromethyl)phenyl)-3-(N-(1-(1-chlorocyclopropyl)ethyl)-4-cyanobenzamido)-2-fluorobenzamide], which mortality at 1 ppm (Mythimna separata) is on record?
**A.** ≥ 90%

**Q.** What about the mortality at 10 ppm [1] of the same molecule?
**A.** ≥ 90%

**Q.** And the mortality at 1 ppm (Plutella xylostella)?
**A.** ≥ 90%

**Q.** What about the mortality at 10 ppm (Spodoptera litura; 3rd day after treatment) of the same molecule?
**A.** ≥ 90%

**Q.** Which mortality at 1 ppm (Mythimna separata) does the source give for COC(c1cc(Br)c(NC(=O)c2cccc(N(CC3CC3)C(=O)c3ccc(C(F)(F)F)cc3)c2F)c(C(F)(F)F)c1)(C(F)(F)F)C(F)(F)F [Compound 38, N-(2-bromo-4-(1,1,1,3,3,3-hexafluoro-2-methoxypropan-2-yl)-6-(trifluoromethyl)phenyl)-3-(N-(cyclopropylmethyl)-4-(trifluoromethyl)benzamido)-2-fluorobenzamide] here?
**A.** ≥ 90%

**Q.** What does the source list for O=C(Nc1c(I)cc(C(F)(C(F)(F)F)C(F)(F)F)cc1C(F)(F)F)c1cccc(N(CC2CC2)C(=O)c2ccc(Br)cc2)c1F [Compound 47, N-(2-iodo-4-(perfluoropropan-2-yl)-6-(trifluoromethyl)phenyl)-3-(4-bromo-N-(cyclopropylmethyl)benzamido)-2-fluorobenzamide]?
**A.** mortality at 1 ppm (Mythimna separata): ≥ 90%; mortality at 1 ppm [1]: 90%; mortality at 0.4 ppm (Spodoptera litura; 0.4 ppm, 3rd day after treatment, read-out: mortality of Spodoptera litura): ≥ 90%; mortality at 10 ppm (Chilo suppressalis; 3rd day after treatment): ≥ 90%

**Q.** Which results are given for Spinetoram [reference compound]?
**A.** sensitivity of the thrips population, mortality (soybean thrips; dose 50 mg/L, 6th day after treatment): 96.55%; Mortality % 1 d (soybean thrips; [2]): 93.94%; No. of thrips 1 d (soybean thrips; [2]): 16; Mortality % 6 d (soybean thrips; [3]): 96.55%; No. of thrips 6 d (soybean thrips; [3]): 4

**Q.** Which mortality at 1 ppm [1] does the source give for O=C(Nc1c(Br)cc(C(F)(C(F)(F)F)C(F)(F)F)cc1C(F)(F)F)c1cccc(N(CC2CC2)C(=O)c2ccc(Br)cc2)c1F [Compound 46, N-(2-bromo-4-(perfluoropropan-2-yl)-6-(trifluoromethyl)phenyl)-3-(4-bromo-N-(cyclopropylmethyl)benzamido)-2-fluorobenzamide] here?
**A.** 90%

**Q.** What about the mortality at 5 ppm (Chilo suppressalis; [4]) of the same molecule?
**A.** ≥ 90%

**Q.** How did the mortality at 1 ppm (Mythimna separata) turn out when O=C(Nc1c(Br)cc(C(F)(C(F)(F)F)C(F)(F)F)cc1C(F)(F)F)c1cccc(N(CC2CC2)C(=O)c2ccc(I)cc2)c1F [Compound 52, N-(2-bromo-4-(perfluoropropan-2-yl)-6-(trifluoromethyl)phenyl)-3-(N-(cyclopropylmethyl)-4-iodobenzamido)-2-fluorobenzamide] was run?
**A.** ≥ 90%

**Q.** And the mortality at 10 ppm (Spodoptera litura; 3rd day after treatment)?
**A.** ≥ 90%

**Q.** What about the mortality at 10 ppm (Chilo suppressalis; 3rd day after treatment) of the same molecule?
**A.** ≥ 90%

**Q.** Which results are given for O=C(Nc1c(I)cc(C(F)(C(F)(F)F)C(F)(F)F)cc1C(F)(F)F)c1cccc(N(CC2CC2)C(=O)c2ccc(I)cc2)c1F [Compound 53, N-(2-iodo-4-(perfluoropropan-2-yl)-6-(trifluoromethyl)phenyl)-3-(N-(cyclopropylmethyl)-4-iodobenzamido)-2-fluorobenzamide]?
**A.** mortality at 10 ppm [1]: ≥ 90%; mortality at 10 ppm (Spodoptera litura; 3rd day after treatment): ≥ 90%; mortality at 10 ppm (Chilo suppressalis; 3rd day after treatment): ≥ 90%

**Q.** How did the mortality at 0.04 ppm (Plutella xylostella; [5]) turn out when CN(C(=O)c1ccccc1)c1cccc(C(=O)Nc2c(Br)cc(C(F)(C(F)(F)F)C(F)(F)F)cc2C(F)(F)F)c1F [KC1 (broflanilide), broflanilide, reference compound] was run?
**A.** 0%

**Q.** And the mortality at 0.04 ppm (Plutella xylostella; [6])?
**A.** 56.7%

**Q.** What about the mortality at 0.04 ppm (Plutella xylostella; [7]) of the same molecule?
**A.** 90%

**Q.** And the mortality at 0.4 ppm (Spodoptera litura; [5])?
**A.** 0%

**Q.** What about the mortality at 1 ppm (Spodoptera litura; [5]) of the same molecule?
**A.** 26.7%

**Q.** What about the mortality at 0.4 ppm (Spodoptera litura; [6]) of the same molecule?
**A.** 0%

**Q.** And the mortality at 1 ppm (Spodoptera litura; [6])?
**A.** 33.3%

**Q.** And the mortality at 0.4 ppm (Spodoptera litura; [7])?
**A.** 0%

**Q.** What about the mortality at 1 ppm (Spodoptera litura; [7]) of the same molecule?
**A.** 33.3%

**Q.** Which results are given for CN(C(=O)c1ccc(C#N)cc1)c1cccc(C(=O)Nc2c(Br)cc(C(F)(C(F)(F)F)C(F)(F)F)cc2C(F)(F)F)c1F [KC2, reference compound]?
**A.** mortality at 0.4 ppm (Chilo suppressalis; 72 h, 0.4 ppm, 3d): 0%; mortality at 1 ppm (Chilo suppressalis; 72 h, 1 ppm, 3d): 53.3%; mortality at 2 ppm (Chilo suppressalis; 72 h, 2 ppm, 3d): 86.7%; mortality at 5 ppm (Chilo suppressalis; 72 h, 3d, read-out: Mortality (%, 3d) 5 ppm): 93.3%

**Q.** CC(C1CC1)N(C(=O)c1ccc(F)cc1)c1cccc(C(=O)Nc2c(Br)cc(C(F)(C(F)(F)F)C(F)(F)F)cc2C(F)(F)F)c1F (centres unmarked) [Compound 63, N-(2-bromo-4-(perfluoropropan-2-yl)-6-(trifluoromethyl)phenyl)-3-(N-(1-cyclopropylethyl)-4-fluorobenzamido)-2-fluorobenzamide] was tested. Which mortality at 1 ppm (Plutella xylostella) did it give?
**A.** ≥ 90%

**Q.** What does the source list for CC(C1CC1)N(C(=O)c1ccccc1)c1cccc(C(=O)Nc2c(Br)cc(C(F)(C(F)(F)F)C(F)(F)F)cc2C(F)(F)F)c1F (centres unmarked) [Compound 8, N-(2-bromo-4-(perfluoropropan-2-yl)-6-(trifluoromethyl)phenyl)-3-(N-(1-cyclopropylethyl)benzamido)-2-fluorobenzamide]?
**A.** mortality at 1 ppm (Mythimna separata): ≥ 90%; mortality at 0.4 ppm (Plutella xylostella): ≥ 90%

**Q.** Which results are given for CC(C1CC1)N(C(=O)c1ccc(C#N)cc1)c1cccc(C(=O)Nc2c(Br)cc(C(F)(C(F)(F)F)C(F)(F)F)cc2C(F)(F)F)c1F (centres unmarked) [Compound 26, N-(2-bromo-4-(perfluoropropan-2-yl)-6-(trifluoromethyl)phenyl)-3-(4-cyano-N-(1-cyclopropylethyl)benzamido)-2-fluorobenzamide]?
**A.** mortality at 1 ppm (Mythimna separata): ≥ 90%; mortality at 0.4 ppm (Plutella xylostella): ≥ 90%; mortality at 5 ppm (Chilo suppressalis; [4]): ≥ 90%

**Q.** For CC(C1CC1)N(C(=O)c1ccc(Br)cc1)c1cccc(C(=O)Nc2c(Br)cc(C(F)(C(F)(F)F)C(F)(F)F)cc2C(F)(F)F)c1F (centres unmarked) [Compound 50, N-(2-bromo-4-(perfluoropropan-2-yl)-6-(trifluoromethyl)phenyl)-3-(4-bromo-N-(1-cyclopropylethyl)benzamido)-2-fluorobenzamide], which mortality at 10 ppm (Chilo suppressalis; 3rd day after treatment) is on record?
**A.** ≥ 90%

**Q.** With CC(C1CC1)N(C(=O)c1ccc(C(F)(F)F)cc1)c1cccc(C(=O)Nc2c(Br)cc(C(F)(C(F)(F)F)C(F)(F)F)cc2C(F)(F)F)c1F (centres unmarked) [Compound 39, N-(2-bromo-4-(perfluoropropan-2-yl)-6-(trifluoromethyl)phenyl)-3-(N-(1-cyclopropylethyl)-4-(trifluoromethyl)benzamido)-2-fluorobenzamide] as the molecule, how does the mortality at 1 ppm (Mythimna separata) read?
**A.** ≥ 90%

**Q.** What about the mortality at 1 ppm (Plutella xylostella) of the same molecule?
**A.** ≥ 90%

**Q.** What about the mortality at 10 ppm (Chilo suppressalis; 3rd day after treatment) of the same molecule?
**A.** ≥ 90%

**Q.** Which mortality at 1 ppm (Mythimna separata) does the source give for O=C(Nc1c(Br)cc(C(F)(C(F)(F)F)C(F)(F)F)cc1C(F)(F)F)c1cccc(N(C(=O)c2ccccc2)C(C2CC2)C2CC2)c1F [Compound 22, N-(2-bromo-4-(perfluoropropan-2-yl)-6-(trifluoromethyl)phenyl)-3-(N-(dicyclopropylmethyl)benzamido)-2-fluorobenzamide] here?
**A.** ≥ 90%
